According to patent US20240150362A1, “Substituted Pyrrolotriazines” (Molecure S.A., priority 2022, published 2024):
Structures can show the parent of a compound that is named as a salt.

molecular target: T1, full-length USP7 (Homo sapiens, UniProt Q93009); test: Enzymatic assay to determine IC50 of USP7 inhibitors (Ubiquitin-Rhodamine 110 cleavage); format: biochemical; conditions: full-length USP7 0.5-1.0 nM, 0.5 μM Ubiquitin-Rhodamine 110, 30-60 min at 25° C.
T1 construct: A 45 μl reaction volume containing full-length USP7 (0.5-1.0 nM)
T1 sequence (Q93009 whole entry): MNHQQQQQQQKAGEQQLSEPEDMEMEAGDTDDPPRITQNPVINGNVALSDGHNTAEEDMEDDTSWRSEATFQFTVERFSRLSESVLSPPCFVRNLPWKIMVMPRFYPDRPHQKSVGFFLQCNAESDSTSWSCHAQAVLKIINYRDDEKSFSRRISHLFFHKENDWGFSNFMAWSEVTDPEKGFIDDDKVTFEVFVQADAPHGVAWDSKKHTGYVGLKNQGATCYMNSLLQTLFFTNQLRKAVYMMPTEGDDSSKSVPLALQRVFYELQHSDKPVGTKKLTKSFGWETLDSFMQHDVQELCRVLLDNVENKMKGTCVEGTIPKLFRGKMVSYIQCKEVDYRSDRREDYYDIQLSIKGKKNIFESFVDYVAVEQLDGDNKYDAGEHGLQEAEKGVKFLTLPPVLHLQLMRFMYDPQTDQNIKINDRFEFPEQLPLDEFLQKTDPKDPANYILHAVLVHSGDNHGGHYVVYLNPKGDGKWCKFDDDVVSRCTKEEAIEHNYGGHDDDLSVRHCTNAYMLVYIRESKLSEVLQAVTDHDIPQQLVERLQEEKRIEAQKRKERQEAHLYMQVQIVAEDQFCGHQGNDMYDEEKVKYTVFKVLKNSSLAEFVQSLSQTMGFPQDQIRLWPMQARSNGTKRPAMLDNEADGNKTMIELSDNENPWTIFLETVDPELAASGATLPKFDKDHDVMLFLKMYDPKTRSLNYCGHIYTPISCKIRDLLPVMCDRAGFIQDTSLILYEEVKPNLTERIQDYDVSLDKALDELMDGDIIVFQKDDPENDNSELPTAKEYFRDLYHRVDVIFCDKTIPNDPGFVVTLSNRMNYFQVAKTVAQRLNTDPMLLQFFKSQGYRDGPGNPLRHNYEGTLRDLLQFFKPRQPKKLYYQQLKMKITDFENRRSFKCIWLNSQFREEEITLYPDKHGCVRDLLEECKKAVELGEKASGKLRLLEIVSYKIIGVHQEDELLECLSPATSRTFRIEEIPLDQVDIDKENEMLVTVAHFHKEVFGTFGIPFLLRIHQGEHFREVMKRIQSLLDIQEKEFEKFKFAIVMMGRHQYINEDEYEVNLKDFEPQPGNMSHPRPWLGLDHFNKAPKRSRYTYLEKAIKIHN
Procedure: Enzymatic Assay to Determine IC50 of USP7 Inhibitors
The IC50 is the concentration of an inhibitor where the measured enzyme activity is reduced by half. In the case of USP7 deubiquitinase, the IC50 of an USP7 inhibitor is the molar concentration of the compound that inhibits 50% of the activity observed in a USP7-mediated-ubiquitin-rhodamine cleavage assay. For the inhibitors disclosed herein, their potency was measured using the following method.
A 45 μl reaction volume containing full-length USP7 (0.5-1.0 nM) in 50 mM HEPES pH 7.5, 150 mM NaCl, 2 mM DTT, 1 mg/ml BSA and 0.05% Tween20 was assembled in wells of 96 well half area black flat bottom plates. Test compounds were first dissolved to 30 mM stocks in DMSO and subsequently introduced to enzyme 15 min after USP7 incubation with DTT at room temperature. The enzymatic reaction was started by adding 0.5 μM Ubiquitin-Rhodamine 110 (final concentration) and allowed to proceed for 30-60 min at 25° C., 250 RPM shaking before Rhodamine fluorescence (485 nm excitation/535 nm emission) was measured using Tecan Spark M10 plate reader. The IC50 values were determined by data fitting to variable slope model four-parameter dose-response curve using GraphPad 7.05.

SMILES | IC50 [nM]
Cc1cc(Cl)cc(-c2ncnn3cc(CN4C(=O)C5C(C4=O)C5(C)C)cc23)c1NCC1(C)CCNCC1 (centres unmarked) [Example 78, 3-((4-(5-chloro-3-methyl-2-(((4-methylpiperidin-4-yl)methyl)amino)phenyl)pyrrolo[2,1-f][1,2,4]triazin-6-yl)methyl)-6,6-dimethyl-3-azabicyclo[3.1.0]hexane-2,4-dione dihydrochloride] | < 500
Cc1cc(Cl)cc(-c2ncnn3cc(CN4C(=O)C5C(C4=O)C5(C)C)cc23)c1CN1[C@@H](C)CNC[C@@H]1C (stereo partly drawn) [Example 11, 3-((4-(5-chloro-2-(((2S,6S)-2,6-dimethylpiperazin-1-yl)methyl)-3-methylphenyl)pyrrolo[2,1-f][1,2,4]triazin-6-yl)methyl)-6,6-dimethyl-3-azabicyclo[3.1.0]hexane-2,4-dione dihydrochloride] | < 500
O=c1ccn(CC(F)(F)F)c(=O)n1Cc1cc2c(-c3cc(Cl)cc4ccn(CC5(F)CCNCC5)c34)ncnn2c1 [Example 70, 3-((4-(5-chloro-1-((4-fluoropiperidin-4-yl)methyl)-1H-indol-7-yl)pyrrolo[2,1-f][1,2,4]triazin-6-yl)methyl)-1-(2,2,2-trifluoroethyl)pyrimidine-2,4(1H,3H)-dione dihydrochloride] | < 500
CC1(C)C2C(=O)N(Cc3cc4c(-c5cc(C(F)(F)F)cc6ccn(C[C@@H]7CNCCO7)c56)ncnn4c3)C(=O)C21 (stereo partly drawn) [Example 35, 6,6-dimethyl-3-((4-(1-(((S)-morpholin-2-yl)methyl)-5-(trifluoromethyl)-1H-indol-7-yl)pyrrolo[2,1-f][1,2,4]triazin-6-yl)methyl)-3-azabicyclo[3.1.0]hexane-2,4-dione 2,2,2-trifluoroacetate] | < 500
CCn1ccc(=O)n(Cc2cc3c(-c4cc(Cl)cc(C)c4CC4CNC[C@H](C)O4)ncnn3c2)c1=O (single isomer, unassigned) [Example 114, hydrochloride] | < 500
Cc1cc(Cl)cc(-c2ncnn3cc(Cn4c(=O)ccn(C)c4=O)cc23)c1CC1CN[C@@H](C)CO1 (single isomer, unassigned) [Example 110, hydrochloride] | < 500
Cc1cc(Cl)cc(-c2ncnn3cc(Cn4c(=O)ccn(C(C)C)c4=O)cc23)c1C[C@@H]1CNCCO1 (single isomer, unassigned) [Example 89, hydrochloride] | < 500
Cn1ccc(=O)n(Cc2cc3c(-c4cc(Cl)cc5ccn(C[C@@H]6CNCCO6)c45)ncnn3c2)c1=O [Example 39, (S)-3-((4-(5-chloro-1-(morpholin-2-ylmethyl)-1H-indol-7-yl)pyrrolo[2,1-f][1,2,4]triazin-6-yl)methyl)-1-methylpyrimidine-2,4(1H,3H)-dione hydrochloride] | < 500
CC1(C)C2C(=O)N(Cc3cc4c(-c5cc([N+](=O)[O-])cc6ccn(C[C@@H]7CNCCO7)c56)ncnn4c3)C(=O)C21 (stereo partly drawn) [Example 32, 6,6-dimethyl-3-((4-(1-(((S)-morpholin-2-yl)methyl)-5-nitro-1H-indol-7-yl)pyrrolo[2,1-f][1,2,4]triazin-6-yl)methyl)-3-azabicyclo[3.1.0]hexane-2,4-dione 2,2,2-trifluoroacetate] | < 500
CC1(C)C2C(=O)N(Cc3cc4c(-c5cc(Cl)cc6ccn(CC7(F)CCCNC7)c56)ncnn4c3)C(=O)C21 (centres unmarked) [Example 29, 3-((4-(5-chloro-1-((3-fluoropiperidin-3-yl)methyl)-1H-indol-7-yl)pyrrolo[2,1-f][1,2,4]triazin-6-yl)methyl)-6,6-dimethyl-3-azabicyclo[3.1.0]hexane-2,4-dione hydrochloride] | < 500
CC1(C)C2C(=O)N(Cc3cc4c(-c5cc(Cl)cc6ccn(CC7(C#N)CCNCC7)c56)ncnn4c3)C(=O)C21 (centres unmarked) [Example 25, 4-((5-chloro-7-(6-((6,6-dimethyl-2,4-dioxo-3-azabicyclo[3.1.0]hexan-3-yl)methyl)pyrrolo[2,1-f][1,2,4]triazin-4-yl)-1H-indol-1-yl)methyl)piperidine-4-carbonitrile 2,2,2-trifluoroacetate] | < 500
Cc1cc(Cl)cc(-c2ncnn3cc(CN4C(=O)C5C(C4=O)C5(C)C)c(C)c23)c1C[C@@H]1CNCCO1 (stereo partly drawn) [Example 13, 3-((4-(5-chloro-3-methyl-2-(((R)-morpholin-2-yl)methyl)phenyl)-5-methylpyrrolo[2,1-f][1,2,4]triazin-6-yl)methyl)-6,6-dimethyl-3-azabicyclo[3.1.0]hexane-2,4-dione hydrochloride] | 500 to 1000

Other lines, results leading:

IC50 [nM] | SMILES
< 500 | Cc1cc(Cl)cc(-c2ncnn3cc(Cn4c(=O)cc[nH]c4=O)cc23)c1C[C@@H]1CNCCO1 (single isomer, unassigned) [Example 124, hydrochloride]
< 500 | Cc1cc(Cl)cc(-c2ncnn3cc(Cn4c(=O)c(C)cn(C)c4=O)cc23)c1CC1CNC[C@H](C)O1 (single isomer, unassigned) [Example 115, hydrochloride]
< 500 | Cc1cc(Cl)cc(-c2ncnn3cc(CN4C(=O)C5C(C4=O)C5(C)C)cc23)c1CN1CCNC[C@@H]1C (stereo partly drawn) [Example 6, 3-((4-(5-chloro-3-methyl-2-(((S)-2-methylpiperazin-1-yl)methyl)phenyl)pyrrolo[2,1-f][1,2,4]triazin-6-yl)methyl)-6,6-dimethyl-3-azabicyclo[3.1.0]hexane-2,4-dione hydrochloride]
< 500 | Cn1ccc(=O)n(Cc2cc3c(-c4cc(Cl)cc(Cl)c4CC4CNCCO4)ncnn3c2)c1=O (centres unmarked) [Example 118, 3-((4-(3,5-dichloro-2-(morpholin-2-ylmethyl)phenyl)pyrrolo[2,1-f][1,2,4]triazin-6-yl)methyl)-1-methylpyrimidine-2,4(1H,3H)-dione hydrochloride]
< 500 | Cc1cc(Cl)cc(-c2ncnn3cc(Cn4c(=O)ccn(CC(F)F)c4=O)cc23)c1CC1CNC[C@H](C)O1 (stereo partly drawn) [Example 95, 3-((4-(5-chloro-3-methyl-2-(((6S)-6-methylmorpholin-2-yl)methyl)phenyl)pyrrolo[2,1-f][1,2,4]triazin-6-yl)methyl)-1-(2,2-difluoroethyl)pyrimidine-2,4(1H,3H)-dione hydrochloride]
< 500 | Cc1cc(Cl)cc(-c2ncnn3cc(CN4C(=O)C5C(C4=O)C5(C)C)cc23)c1O[C@H]1CCCNC1 (stereo partly drawn) [Example 1, 3-((4-(5-chloro-3-methyl-2-(((S)-piperidin-3-yl)oxy)phenyl)pyrrolo[2,1-f][1,2,4]triazin-6-yl)methyl)-6,6-dimethyl-3-azabicyclo[3.1.0]hexane-2,4-dione hydrochloride]
< 500 | CC1(C)C2C(=O)N(Cc3cc4c(-c5cc(Cl)cc6c5N(C5CCNC5)CCO6)ncnn4c3)C(=O)C21 (centres unmarked) [Example 55, 3-((4-(7-chloro-4-(pyrrolidin-3-yl)-3,4-dihydro-2H-benzo[b][1,4]oxazin-5-yl)pyrrolo[2,1-f][1,2,4]triazin-6-yl)methyl)-6,6-dimethyl-3-azabicyclo[3.1.0]hexane-2,4-dione hydrochloride]
< 500 | Cc1cc(Cl)cc(-c2ncnn3cc(CN4C(=O)C5C(C4=O)C5(C)C)cc23)c1CC1CNC[C@H](C)O1 (stereo partly drawn) [Example 27, 3-((4-(5-chloro-3-methyl-2-(((6S)-6-methylmorpholin-2-yl)methyl)phenyl)pyrrolo[2,1-f][1,2,4]triazin-6-yl)methyl)-6,6-dimethyl-3-azabicyclo[3.1.0]hexane-2,4-dione dihydrochloride]
< 500 | Cc1cc(Cl)cc(-c2ncnn3cc(CN4C(=O)C5C(C4=O)C5(C)C)cc23)c1OCC1CCNCC1 (centres unmarked) [Example 48, 3-((4-(5-chloro-3-methyl-2-(piperidin-4-ylmethoxy)phenyl)pyrrolo[2,1-f][1,2,4]triazin-6-yl)methyl)-6,6-dimethyl-3-azabicyclo[3.1.0]hexane-2,4-dione hydrochloride]
< 500 | Cc1cc(Cl)cc(-c2ncnn3cc(Cn4c(=O)ccn(CC(F)(F)F)c4=O)cc23)c1CC1CNCCO1 (racemic) [Example 68, 3-((4-(5-chloro-3-methyl-2-(morpholin-2-ylmethyl)phenyl)pyrrolo[2,1-f][1,2,4]triazin-6-yl)methyl)-1-(2,2,2-trifluoroethyl)pyrimidine-2,4(1H,3H)-dione hydrochloride]
< 500 | Cc1cc(Cl)cc(-c2ncnn3cc(Cn4c(=O)ccn(C5CC5)c4=O)cc23)c1C[C@@H]1CNCCO1 (single isomer, unassigned) [Example 107, hydrochloride]
< 500 | C[C@H]1CN(C2CCNC2)c2c(cc(Cl)cc2-c2ncnn3cc(CN4C(=O)C5C(C4=O)C5(C)C)cc23)O1 (stereo partly drawn) [Example 94, 3-((4-((2S)-7-chloro-2-methyl-4-(pyrrolidin-3-yl)-3,4-dihydro-2H-benzo[b][1,4]oxazin-5-yl)pyrrolo[2,1-f][1,2,4]triazin-6-yl)methyl)-6,6-dimethyl-3-azabicyclo[3.1.0]hexane-2,4-dione hydrochloride]
< 500 | CC1(C)C2C(=O)N(Cc3cc4c(-c5cc(Cl)cc6cnn(C[C@@H]7CNCCO7)c56)ncnn4c3)C(=O)C21 (stereo partly drawn) [Example 44, 3-((4-(5-chloro-1-(((S)-morpholin-2-yl)methyl)-1H-indazol-7-yl)pyrrolo[2,1-f][1,2,4]triazin-6-yl)methyl)-6,6-dimethyl-3-azabicyclo[3.1.0]hexane-2,4-dione 2,2,2-trifluoroacetate]
< 500 | Cc1cc(Cl)cc(-c2ncnn3cc(CN4C(=O)CN(C)CC4=O)cc23)c1CC1CNC[C@H](C)O1 (single isomer, unassigned) [Example 117, hydrochloride]
